Measurements published in patent publication US20240139171A1, “TREATMENT AND/OR REDUCTION OF OCCURRENCE OF MIGRAINE” (CGRP Diagnostics GmbH, priority 2021, published 2024).

Experiments:
[1] = test system: high-threshold (HT) trigeminovascular neurons; assay: Activation and sensitization of HT trigeminovascular neurons by cortical spreading depression (CSD); format: in vivo, rat; conditions: 30 mg/kg IV; for mean firing rate of HT neurons before CSD: before CSD (4 hours post-treatment)
Excerpt: (§1) Experiments were approved by the Beth Israel Deaconess Medical Center and Harvard Medical School standing committees on animal care, and in accordance with the U. S. National Institutes of Health Guide for the Care and Use of Laboratory Animals. Male and female Sprague-Dawley rats (250-350 g) were anesthetized with urethane (0.9-1.2 g/kg i.p.). They were fitted with an intra-tracheal tube to allow artificial ventilation (0.1 L/min of O2), and an intra-femoral-vein cannula for later infusion of drugs. Rats were placed in a stereotaxic apparatus, and core temperature was kept at 37° C. using a heating blanket. End-tidal CC was continuously monitored and kept within physiological range (3.5-4.5 pCC). Once stabilized, rats were paralyzed with rocuronium bromide (10 mg/ml, 1 ml/hr continuous intravenous infusion) and ventilated. For stimulation of the cranial dura later in the experiment, a 5×5-mm opening was carefully carved in the parietal and occipital bones in front and behind the lambda suture, directly above the left transverse sinus. The exposed dura was kept moist using a modified synthetic interstitial fluid (135 mM NaCl, 5 mM KCl, 1 mM MgCh, 5 mM CaCh, 10 mM glucose and 10 mM Hepes, pH 7.2). For single-unit recording in the spinal trigeminal nucleus, a segment of the spinal cord between the obex and C2 was uncovered from overlying tissues, stripped of the dura mater, and kept moist with mineral oil.
(§2) To record neuronal activity, a tungsten microelectrode (impedance 3-4 MO) was lowered repeatedly into the spinal trigeminal nucleus (STN) in search of central trigeminovascular neurons receiving convergent input from the dura and facial skin. Trigeminovascular neurons were first identified based on their responses to electrical stimulation of the dura. […] Dural receptive fields were mapped by indenting the dura (with the 4.19 g VFH monofilament) at points separated by 1 mm mediolaterally and rostrocaudally. Points at which dural indentation produced a response in >50% of the trials were considered inside the neurons receptive field. Cutaneous receptive fields were mapped by applying innocuous and noxious mechanical stimulation to all facial skin areas and the cornea. An area was considered outside the receptive field if no stimulus produced a response in >50% of the trials. Responses to mechanical stimulation of the skin were determined by applying brief (10 s) innocuous and noxious stimuli to the most sensitive portion of the cutaneous receptive field. Innocuous stimuli consisted of slowly passing a soft bristled brush across the cutaneous receptive field (one 5-s brush stroke from caudal to rostral and one 5-s brush stroke from rostral to caudal) and pressure applied with a loose arterial clip. Noxious stimuli consisted of pinch with a strong arterial clip (Palecek et al, 1992, J. Neurophysiol. 67: 1562-1573; Dado et al, 1994, J. Neurophysiol. 71:981-1002; Burstein et al., 1998, J. Neurophysiol. 79:964-982). More intense or prolonged stimuli were not used to avoid inducing prolonged changes in spontaneous neuronal discharge or response properties. Responses to mechanical stimulation of the cornea consisted of gentle and slow brushing strokes with a thin paintbrush (about 10 hair-follicles). Two classes of neurons were thus identified: wide-dynamic-range (WDR) neurons (incrementally responsive to brush, pressure and pinch), and high-threshold (HT) neurons (unresponsive to brush). Real-time waveform discriminator was used to create and store a template for the action potential evoked in the neuron under study by electrical pulses on the dura; spikes of activity matching the template waveform were acquired and analyzed online and offline using Spike 2 software (CED, Cambridge, UK). Induction and recording of cortical spreading depression.
(§3) Cortical spreading depression (CSD) was induced mechanically by inserting a glass micropipette (tip diameter 25 μm) about 1 mm into the visual cortex for 10 sec. […]

meningeal Aδ-fibers = conditions: in vivo; cited from earlier work
[2] = test system: wide-dynamic-range (WDR) trigeminovascular neurons; assay: Activation of WDR trigeminovascular neurons by cortical spreading depression (CSD); format: in vivo, rat; conditions: male and female rats, 30 mg/kg IV
Excerpt: Experiments were approved by the Beth Israel Deaconess Medical Center and Harvard Medical School standing committees on animal care, and in accordance with the U. S. National Institutes of Health Guide for the Care and Use of Laboratory Animals. Male and female Sprague-Dawley rats (250-350 g) were anesthetized with urethane (0.9-1.2 g/kg i.p.). They were fitted with an intra-tracheal tube to allow artificial ventilation (0.1 L/min of O2), and an intra-femoral-vein cannula for later infusion of drugs. Rats were placed in a stereotaxic apparatus, and core temperature was kept at 37° C. using a heating blanket. End-tidal CC was continuously monitored and kept within physiological range (3.5-4.5 pCC). Once stabilized, rats were paralyzed with rocuronium bromide (10 mg/ml, 1 ml/hr continuous intravenous infusion) and ventilated. […]
To record neuronal activity, a tungsten microelectrode (impedance 3-4 MO) was lowered repeatedly into the spinal trigeminal nucleus (STN) in search of central trigeminovascular neurons receiving convergent input from the dura and facial skin. […] Responses to mechanical stimulation of the skin were determined by applying brief (10 s) innocuous and noxious stimuli to the most sensitive portion of the cutaneous receptive field. […]

[3] = test system: naive wide-dynamic-range (WDR) trigeminovascular neurons in the spinal trigeminal nucleus; assay: Single-unit recording of spontaneous and evoked activity of naive WDR trigeminovascular neurons; format: in vivo, rat; conditions: 30 mg/kg IV
Excerpt: as §1, with “For single-unit recording in the spinal trigeminal nucleus, a segment of the spinal cord between the obex and C2 was uncovered from overlying tissues, stripped of the dura mater, and kept moist with mineral oil.” left out
To record neuronal activity, a tungsten microelectrode (impedance 3-4 MO) was lowered repeatedly into the spinal trigeminal nucleus (STN) in search of central trigeminovascular neurons receiving convergent input from the dura and facial skin. […] Responses to mechanical stimulation of the skin were determined by applying brief (10 s) innocuous and noxious stimuli to the most sensitive portion of the cutaneous receptive field. […] Real-time waveform discriminator was used to create and store a template for the action potential evoked in the neuron under study by electrical pulses on the dura; spikes of activity matching the template waveform were acquired and analyzed online and offline using Spike 2 software (CED, Cambridge, UK). […]

[4] = test system: naive high-threshold (HT) trigeminovascular neurons in the spinal trigeminal nucleus; assay: Single-unit recording of spontaneous and evoked activity of naive HT trigeminovascular neurons; format: in vivo, rat; conditions: 30 mg/kg IV
Excerpt: as §1, §2, §3

[5] = test system: naive central trigeminovascular neurons; conditions: in vivo; cited from earlier work
[6] = female rats, 2 hours after CSD, 6 hours after administration
[7] = male and female rats, 2 hours after CSD, 6 hours after administration
[8] = male rats, 2 hours after CSD, 6 hours after administration

## fremanezumab [CGRP-mAb]
[1]; female rats
  HT neurons with expanded dural receptive fields after CSD: 0/6
  HT neurons with expanded facial receptive fields after CSD: 0/6
  change of HT response to brushing the cornea after CSD: remained unchanged
  mean firing rate of HT neurons before CSD: 3.3±1.7 spikes/sec
[1]; [6]
  HT neuronal responses to dural indentation with VFH after CSD: 8.1±6.4 spikes/sec
  mean firing rate of HT neurons after CSD: 5.0±3.4 spikes/sec
[1]; female rats, before CSD
  HT neuronal responses to dural indentation with VFH before CSD: 10.5±1.6 spikes/sec
[1]; male and female rats
  difference in proportion of HT neurons activated by CSD, CGRP-mAb vs isotype-conAb: 86%
[1]; [7]
  change of HT neuronal responses to brush after CSD: remained unchanged
  change of HT neuronal responses to pinch after CSD: remained unchanged
  change of HT neuronal responses to pressure after CSD: remained unchanged
[1]; male and female rats, activated/tested neurons
  HT neurons activated by CSD (case-by-case analysis): 2/14
[1]; male rats
  HT neurons with expanded dural receptive fields after CSD: 2/8
  HT neurons with expanded facial receptive fields after CSD: 2/8
  mean firing rate of HT neurons before CSD: 1.2±0.6 spikes/sec
[1]; [8]
  HT neuronal responses to dural indentation with VFH after CSD: 1.9±1.5 spikes/sec
  mean firing rate of HT neurons after CSD: 1.9±1.5 spikes/sec
[1]; male rats, after CSD
  HT responses to corneal stimulation after CSD: 9. ±1.8 spikes/sec
[1]; male rats, before CSD
  HT neuronal responses to dural indentation with VFH before CSD: 1.8±0.6 spikes/sec
  HT responses to corneal stimulation before CSD: 10.8±3.3 spikes/sec
Meningeal Aδ-fibers
  effect on meningeal Aδ-fibers: inhibits
[2]
  difference in proportion of WDR neurons activated by CSD, CGRP-mAb vs isotype-conAb: 2%
[2]; activated/tested neurons
  WDR neurons activated by CSD (case-by-case analysis): 5/13
[3]; female rats
  effect on spontaneous activity of WDR neurons: did not reduce the spontaneous activity of HT or WDR neurons
[3]; male and female rats
  effect on sensitivity of WDR neurons to mechanical stimulation of the dura: but not the WDR neurons
[3]; male or female rats
  effect on responses of WDR neurons to innocuous (brush, pressure) or noxious (pinch) mechanical stimulation of the skin or the cornea: did not alter the responses of HT or WDR neurons
[4]; female rats
  decrease in firing of HT neurons to mechanical stimulation of the dura: 61%
  effect on spontaneous activity of HT neurons: did not reduce the spontaneous activity of HT or WDR neurons
[4]; male and female rats
  effect on sensitivity of HT neurons to mechanical stimulation of the dura: reduced the sensitivity to mechanical stimulation of the dura in the HT
[4]; male or female rats
  effect on responses of HT neurons to innocuous (brush, pressure) or noxious (pinch) mechanical stimulation of the skin or the cornea: did not alter the responses of HT or WDR neurons
[4]; male rats
  decrease in firing of HT neurons to mechanical stimulation of the dura: 75%
  effect on spontaneous activity of HT neurons: reduced the spontaneous activity of the HT
[4]; male rats, within 3-4 hrs
  decrease in spontaneous neuronal firing of HT neurons: 90%

## NCCCC[C@H](NC(=O)[C@@H](Cc1cc(Br)c(O)c(Br)c1)NC(=O)N1CCC(N2Cc3ccccc3NC2=O)CC1)C(=O)N1CCN(c2ccncc2)CC1 [BIBN4096BS]
[5]
  effect on naive central trigeminovascular neurons responses to electrical stimulation of the superior sagittal sinus and microiontophoretic L-glutamate: inhibits
